Structures are written as SMILES. Where two headings read alike, the source gives them in different places.

For one test, the system named is BSA-AGEs formation. The test can be described thus: Inhibition of BSA-AGEs formation. The class given is biochemical. The note with it: mean ± SD, triplicate. On the procedure:
(§1) The inhibitory activity of HRAR was examined according to previous literature with modifications. First, 150 µL of 100 mM sodium phosphate buffer (pH 6.2), 20 µL of 0.3 mM NADPH as the co-enzyme, 5 µL of the test samples (50, 10, and 2 mg/mL or 100% DMSO), and 20 µL of 10 mM DL-glyceraldehyde as the substrate were added to each of the 96 wells (final volume 200 µL). Quercetin was used as a positive control. The inhibitory activity of AGEs formation was examined according to the modified method. Aminoguanidine hydrochloride was used as a positive control for the AGEs formation inhibition assay.

The test system of a further test is HAS-AGEs formation. Briefly: Inhibition of HSA-AGEs formation. The note with it: mean ± SD, triplicate. The class given is biochemical. On the procedure:
as §1

The target of test [1] is α-glucosidase. The test can be described thus: α-Glucosidase inhibitory activity. The test is classed as biochemical, Saccharomyces cerevisiae. The note with it: isolated compounds; mean ± SD, triplicate. The source says: (§2) Protein tyrosine phosphatase 1B (PTP1B) was purchased from ENZO (Farmingdale, NY, USA). Human recombinant AR (0.4 units) was purchased from Wako Chemicals (Osaka, Japan). Citric acid trisodium salt dehydrate, citric acid monohydrate, sodium carbonate anhydrous, sodium chloride, sodium phosphate dibasic anhydrous, and sodium phosphate monobasic dehydrate were purchased from SAMCHUN (Seoul, Korea). Peroxynitrite (ONOO^−), 3-[(3-cholamidopropyl)dimethylammonio]-1-propanesulfonate (CHAPS), and sodium azide were purchased from Bio-Rad Laboratories Calbiochem (San Diego, CA, USA), GENERAY BIOTECH (Shanghai, China), and JUNSEI (Chuoku, Tokyo, Japan), respectively.
(§3) The enzyme inhibition study was executed spectrophotometrically following the previous literature.

In test [2] the target is T1, PTP1B (Homo sapiens, UniProt P18031).
T1 construct: purchased ENZO (Farmingdale, NY, USA)
T1 sequence (P18031 1-435): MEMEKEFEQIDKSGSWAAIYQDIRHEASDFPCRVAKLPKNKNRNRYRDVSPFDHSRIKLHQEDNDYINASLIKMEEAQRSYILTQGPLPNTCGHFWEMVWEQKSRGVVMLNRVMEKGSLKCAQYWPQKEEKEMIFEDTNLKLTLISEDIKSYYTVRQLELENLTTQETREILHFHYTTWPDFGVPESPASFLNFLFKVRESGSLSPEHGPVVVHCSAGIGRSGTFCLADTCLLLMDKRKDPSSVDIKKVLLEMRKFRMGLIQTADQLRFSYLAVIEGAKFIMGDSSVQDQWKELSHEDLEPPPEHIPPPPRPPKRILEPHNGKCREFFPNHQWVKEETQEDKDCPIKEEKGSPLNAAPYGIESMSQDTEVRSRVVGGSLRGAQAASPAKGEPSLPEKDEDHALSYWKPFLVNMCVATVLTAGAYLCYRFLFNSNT
Briefly: PTP1B enzyme kinetics (Lineweaver–Burk and Dixon plots). As to conditions: substrate pNPP; for Ki: Dixon plots, read-out: PTP1B Inhibition Constant (Ki); for PTP1B Inhibition Mode: Lineweaver–Burk plots. The test is classed as biochemical. On the procedure:
(§4) The two kinetic methods, Lineweaver–Burk plots and Dixon plots, were used to determine the inhibition mechanism. The α-glucosidase inhibition type was measured at various concentrations of substrate (pNPG, 0.625, 1.25, and 2.5 mM) and several concentrations of test compounds (0.8, 0.4, and 0.16 μM for compound 4; 2, 0.8, and 0.16 μM for 6; 3.17, 1.59, and 0.63 μM for 7; 1.54, 1.04, and 0.62 μM for 8) using Lineweaver–Burk double reciprocal plots. The PTP1B enzyme inhibition type was also measured at various concentrations of substrate (pNPP, 0.5, 1.0, 2.0, and 4.0 mM) and several concentrations of test compounds (4.0, 2.0, and 0.8 μM for compound 4; 2.0, 0.8, and 0.16 μM for 6; 15.87, 7.93, 3.17, and 0.63 μM for 7; 6.17, 3.08, 1.54 and 0.78 μM for 8) using Lineweaver–Burk double reciprocal plots. Dixon plots were used to determine the inhibition constant (Ki) of each compound by testing the effects of substrate and compounds against the α-glucosidase and PTP1B under the same conditions as described above.
(§5) Enzyme kinetic analysis was performed with different concentrations of substrate (pNPG and pNPP) and various concentrations of compounds to determine the type of inhibition on the compounds. Lineweaver–Burk and Dixon plots were used to determine the type of inhibition in enzyme kinetics. Each line of inhibitors intersected at the xy-side, indicating mixed-type inhibitors. On the other hand, the lines penetrated the same point on the x-intercept, representing non-competitive inhibitors in Lineweaver–Burk plots, and the Dixon plot was also used to calculate the Ki value for the enzyme inhibitor complex with the value shown on the x-axis indicating the -Ki value.

Test [3] addresses T2, human recombinant aldose reductase (HRAR) (Homo sapiens, UniProt P15121).
T2 construct: purchased Wako Chemicals (Osaka, Japan)
Briefly: HRAR inhibitory activity. The class given is biochemical.
Source text: as §2
The inhibitory activity of HRAR was examined according to previous literature with modifications. First, 150 µL of 100 mM sodium phosphate buffer (pH 6.2), 20 µL of 0.3 mM NADPH as the co-enzyme, 5 µL of the test samples (50, 10, and 2 mg/mL or 100% DMSO), and 20 µL of 10 mM DL-glyceraldehyde as the substrate were added to each of the 96 wells (final volume 200 µL). […] The inhibitory activity of AGEs formation was examined according to the modified method. Aminoguanidine hydrochloride was used as a positive control for the AGEs formation inhibition assay.

The target in test [4] is α-glucosidase. The test can be described thus: α-Glucosidase enzyme kinetics (Lineweaver–Burk and Dixon plots). The test is classed as biochemical, Saccharomyces cerevisiae. As to conditions: substrate pNPG; for Ki: Dixon plots, read-out: α-Glucosidase Inhibition Constant (Ki); for α-Glucosidase Inhibition Mode: Lineweaver–Burk plots. As for the experimental part:
as §4, §5

In test [5] the target is T1, PTP1B. The test can be described thus: PTP1B inhibitory activity. The test is classed as biochemical.
Source text: as §2, §3

A short description of test [6]: ONOO− scavenging activity (DHR123). As to conditions: mean ± SD, triplicate; read-out: Peroxynitirite IC50. On the procedure: ONOO^− scavenging activity was measured using the method in previous literature involving measuring highly fluorescent rhodamine 123 that is converted from non-fluorescent DHR123 in the presence of ONOO^− [49].
Test [7] can be described thus: ABTS radical scavenging activity. The note with it: Table 1; mean ± SD, triplicate. On the procedure: (§6) The ABTS and DPPH radical scavenging activity of the extract and each fraction obtained from M. bombycis leaves were measured according to previous literature with modifications.
The nature of test [8]: DPPH radical scavenging activity. The note with it: Table 1; mean ± SD, triplicate. As for the experimental part:
as §6

Setting [9] is: one result of a single experiment, read-out: HRAR IC50.
The mark [10] stands for this setting: isolated compounds, mean ± SD, triplicate, read-out: PTP1B IC50.

The term IC50 denotes the concentration that gives 50% inhibition. On to `Cl.N=C(N)NN` [Aminoguanidine, aminoguanidine hydrochloride, reference compound], for which the IC50 in the test with BSA-AGEs formation is 581 ± 28.7 µM; in the test with HAS-AGEs formation, 504 ± 14.9 µM. The “BSA-AGEs IC50” value with BSA-AGEs formation (subfractions of EtOAc fraction, Table S1) stood at 36.73 ± 1.64 µg/mL.
The Ki is the equilibrium dissociation constant of an inhibitor or competing ligand from its target. With `Oc1cc(O)cc(-c2cc3cc4c(cc3o2)OC(c2cc(O)cc(O)c2)C(c2ccc(O)cc2O)O4)c1` (stereo not shown) [Austrafuran C (6), austrafuran C], the IC50 on α-glucosidase [1] turned out to be 1.01 ± 0.17 µM; in [3] (setting [9]), 26.8 µM; in the test with BSA-AGEs formation it was 13.7 ± 0.55 µM; at PTP1B [5] (setting [10]), 1.69 ± 0.02 µM; with HAS-AGEs formation, 6.15 ± 0.25 µM; in [6], 2.76 ± 0.25 µM. For the same compound, the Ki was determined as 1.45 µM at PTP1B [2] and 0.75 µM at α-glucosidase [4]. The “PTP1B Inhibition Mode” value at PTP1B [2] is “Mixed”; at PTP1B [2] (listed as 6) it was “mixed-type inhibition”. In addition, in the test with α-glucosidase [4], the “α-Glucosidase Inhibition Mode” value is “Mixed”.
On to `CC(C)=CCc1c(O)ccc(C(=O)[C@H]2[C@@H](c3c(O)cc(-c4cc5ccc(O)cc5o4)cc3O)C=C(C)C[C@@H]2c2ccc(O)cc2O)c1O` [Chalcomoracin (8), chalcomoracin], for which the IC50 was determined as 0.98 ± 0.03 µM at α-glucosidase [1]; 265 µM in test [3] (setting [9]); 137.6 ± 0.33 µM with BSA-AGEs formation; 2.06 ± 0.39 µM at PTP1B [5] (setting [10]); 113 ± 3.62 µM in the test on HAS-AGEs formation; 3.03 ± 0.53 µM in test [6]. The figures for the Ki at PTP1B [2] and at α-glucosidase [4] were 4.41 µM and 1.71 µM, respectively. The “PTP1B Inhibition Mode” value at PTP1B [2] is “Non-competitive”; on PTP1B [2] (listed as 8), “non-competitive-type inhibition”. In the test on α-glucosidase [4], the “α-Glucosidase Inhibition Mode” value was “Mixed”.
For the compound `CC(C)(S)[C@H](N)C(=O)O` [L-Penicillamine, reference compound], the IC50 in test [6] is 0.62 ± 0.17 µM.
Turning to `O=C1O[C@H]([C@@H](O)CO)C(O)=C1O` [L-ascorbic acid], the “ABTS IC50” value in [7] amounted to 3.38 ± 0.19 µg/mL. Moreover, the “DPPH IC50” value in test [8] was determined as 2.82 ± 0.57 µg/mL.
As for `Oc1cc(O)cc(-c2cc3c4c(c(O)cc3o2)OC(c2ccc(O)cc2O)C4c2cc(O)cc(O)c2)c1` (stereo not shown) [Macrourin B (4), macrourin B], the IC50 is 0.44 ± 0.03 µM against α-glucosidase [1]; below 4 µM in test [3] (setting [9]); 9.44 ± 0.18 µM in the test on BSA-AGEs formation; 2.5 ± 0.17 µM on PTP1B [5] (setting [10]); 7.98 ± 0.62 µM in the test on HAS-AGEs formation; 2.61 ± 0.13 µM in test [6]. The values for the Ki at PTP1B [2] and at α-glucosidase [4] were 1.54 µM and 0.19 µM, respectively. The “PTP1B Inhibition Mode” value at PTP1B [2] is given as “Mixed”; on PTP1B [2] (listed as 4), “mixed-type inhibition”. The “α-Glucosidase Inhibition Mode” value in the test on α-glucosidase [4] is recorded as “Mixed”.
With `Oc1cc(O)cc(-c2cc3ccc(O)cc3o2)c1` [Moracin M (5), moracin M], the IC50 is 6.11 ± 0.53 µM at α-glucosidase [1]; 238 µM in [3] (setting [9]); 2.4 ± 0.18 µM with BSA-AGEs formation; 27.1 ± 4.2 µM at PTP1B [5] (setting [10]); 2.07 ± 0.03 µM in the test on HAS-AGEs formation; 0.92 ± 0.13 µM in test [6].
In the case of `CC(C)=CCc1c(O)ccc(C23Oc4cc(O)ccc4C4CC(C)=CC(c5c(O)cc(-c6cc7ccc(O)cc7o6)cc5O2)C43)c1O` (stereo not shown) [Mulberrofuran F (7), mulberrofuran F], the IC50 stood at 1.22 ± 0.05 µM on α-glucosidase [1], 337 µM in test [3] (setting [9]), 10.5 ± 0.25 µM on PTP1B [5] (setting [10]) and 8.63 ± 0.02 µM in test [6]. The Ki on PTP1B [2] turned out to be 8.9 µM; at α-glucosidase [4], 1.84 µM. Further, the figures for the “PTP1B Inhibition Mode” value at PTP1B [2] and on PTP1B [2] (listed as 7) were “Mixed” and “mixed-type inhibition”, respectively. Further, the “α-Glucosidase Inhibition Mode” value in the test with α-glucosidase [4] is “Mixed”.
As for `Oc1cc(O)cc(/C=C/c2ccc(O)cc2O)c1` [Oxyresveratrol (3), oxyresveratrol], the IC50 on α-glucosidase [1] turned out to be 2.58 ± 0.23 µM; in test [3] it was 265 µM; in the test on BSA-AGEs formation, 10.4 ± 0.39 µM; against PTP1B [5] it was 72.9 ± 1.87 µM; in the test on HAS-AGEs formation, 5.38 ± 0.26 µM; in [6] it was 6.24 ± 0.06 µM.
As for `Cc1c(C)c2c(c(C)c1O)CCC(C)(C(=O)O)O2` (stereo not shown) [Trolox, 6-hydroxy-2,5,7,8-tetramethylchloman-2-carboxylic acid], in test [7], the “ABTS IC50” value amounted to 2.72 ± 0.13 µg/mL.

(Values after paper PMC10134988, “An Arylbenzofuran, Stilbene Dimers, and Prenylated Diels–Alder Adducts as Potent Diabetic Inhibitors from Morus bombycis Leaves” (Antioxidants, 2023).)
